The target of this experiment is T1, Recombinant human H-PGDS (Homo sapiens, UniProt O60760).
T1 construct: made in house; host or cells: E. coli
Kind of experiment: H-PGDS inhibitory activity (prostaglandin D2 production from prostaglandin H2, measured by LC-MS/MS). The experiment is classed as biochemical. The note with it: recombinant human H-PGDS 1.0 nM expressed in E. coli; prostaglandin H2 25 μM; preincubated 15 minutes on ice, reacted on ice for 1 minute; concentration that inhibits prostaglandin D2 production by 50%. A digest of the protocol: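 Recombinant human H-PGDS (E. coli-expressed, 1.0 nM final) preincubated with compound 15 min on ice in 20 mM Tris-HCl pH 8.0, 2 mM MgCl2, 2 mM GSH, 0.5 mg/mL γ-globulin. Reaction with 25 µM PGH2 run 1 min on ice, stopped with FeCl2/citric acid, PGD2 quantified by LC-MS/MS. Activity expressed as % of DMSO control after subtracting non-enzymatic PGD2.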

T1 sequence (O60760 whole entry): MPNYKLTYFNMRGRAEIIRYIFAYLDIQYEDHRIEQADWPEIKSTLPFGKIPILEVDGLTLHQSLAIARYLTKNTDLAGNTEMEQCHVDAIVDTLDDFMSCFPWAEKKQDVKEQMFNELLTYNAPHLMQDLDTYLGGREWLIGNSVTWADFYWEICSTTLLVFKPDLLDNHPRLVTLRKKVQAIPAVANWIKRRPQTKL

Regarding `O=C(NC1CCN(c2nncs2)CC1)c1ccc(-c2nccc3occc23)cc1` [Example 237, N-[1-(1,3,4-thiadiazol-2-yl)piperidin-4-yl]-4-(furo[3,2-c]pyridin-4-yl)benzamide], the IC50 came out at 1.2 nM.

In the case of `O=C(NC1CCN(c2ncc(Br)c(=O)[nH]2)CC1)c1ccc(-c2nccc3occc23)cc1` [Example 182, N-[1-(5-bromo-6-oxo-1,6-dihydropyrimidin-2-yl)piperidin-4-yl]-4-(furo[3,2-c]pyridin-4-yl)benzamide], the IC50 is 2.3 nM.

In the case of `O=C(NCC1CC1)c1ccc(-c2nccc3occc23)cc1` [Example 83, N-(cyclopropyl-methyl)-4-(furo[3,2-c]pyridin-4-yl)benzamide], the IC50 stood at 15 nM.

`O=C(NCc1ccccn1)c1ccc(-c2nccc3[nH]ccc23)cc1` [Example 9]: the IC50 came out at 1.5 nM.

In the case of `CC(=O)N1CCC(NC(=O)c2ccc(-c3nccc4occc34)cc2)CC1` [Example 186, N-(1-acetylpiperidin-4-yl)-4-(furo[3,2-c]pyridin-4-yl)benzamide], the IC50 was 2.3 nM.

Regarding `O=C(N[C@@H]1COCCN(c2ncccn2)C1)c1ccc(-c2nccc3occc23)cc1` [Example 224, (S)-4-(furo[3,2-c]pyridin-4-yl)-N-[4-(pyrimidin-2-yl)-1,4-oxazepan-6-yl]benzamide], the IC50 came to 1.8 nM.

In the case of `O=C(NC1CN(c2ccccn2)C1)c1ccc(-c2nccc3occc23)cc1` [Example 113, 4-(furo[3,2-c]pyridin-4-yl)-N-[1-(pyridin-2-yl)azetidin-3-yl]benzamide], the IC50 stood at 2.5 nM.

`CC1(C)CC(NC(=O)c2ccc(-c3nccc4occc34)cc2)CCC1O` (centres unmarked) [Example 277, 4-(furo[3,2-c]pyridin-4-yl)-N-(4-hydroxy-3,3-dimethylcyclohexyl)benzamide]: the IC50 worked out at 3.5 nM.

For the molecule `Cc1cnc(N2CCC(NC(=O)c3ccc(-c4nccc5occc45)cc3)CC2)nc1` [Example 156, 4-(furo[3,2-c]pyridin-4-yl)-N-[1-(5-methylpyrimidin-2-yl)piperidin-4-yl]benzamide], the IC50 is 1.6 nM.

Regarding `O=C(NCc1ccccc1)c1ccc(-c2nccc3sccc23)cc1` [Example 59, N-benzyl-4-(thieno[3,2-c]pyridin-4-yl)benzamide], the IC50 was found to be 9.6 nM.

Turning to `O=C(N[C@H]1CC[C@@H](OCC2(O)CC2)CC1)c1ccc(-c2nccc3occc23)cc1` [Example 353, 4-(furo[3,2-c]pyridin-4-yl)-N-(cis-4-[(1-hydroxycyclopropyl)methoxy]cyclohexyl)benzamide], the IC50 turned out to be 1.4 nM.

Take `Cc1cc(S(N)(=O)=O)ccc1NC(=O)c1ccc(-c2nccc3occc23)cc1` [Example 117, 4-(furo[3,2-c]pyridin-4-yl)-N-(2-methyl-4-sulfamoylphenyl) benzamide]: the IC50 is 12 nM.

For the molecule `CC(C)(O)[C@H]1CC[C@H](NC(=O)c2ccc(-c3nccc4occc34)cc2)CC1` [Example 124, 4-(furo[3,2-c]pyridin-4-yl)-N-[trans-4-(2-hydroxypropan-2-yl)cyclohexyl]benzamide], the IC50 was determined as 1.8 nM.

For the molecule `O=C(NCCCCCCO)c1ccc(-c2nccc3occc23)cc1` [Example 90, 4-(furo[3,2-c]pyridin-4-yl)-N-(6-hydroxyhexyl) benzamide], the half-inhibitory concentration (IC50) was found to be 15 nM.

Regarding `O=C(N[C@H]1CC[C@H](N2CCCCC2=O)CC1)c1ccc(-c2nccc3occc23)cc1` [Example 300, 4-(furo[3,2-c]pyridin-4-yl)-N-[trans-4-(2-oxopiperidin-1-yl)cyclohexyl]benzamide], the IC50 amounted to 4.7 nM.

On to `O=C(NC1CCN(c2ncccn2)CC1)c1ccc(-c2nccc3occc23)cc1` [Example 143, 4-(furo[3,2-c]pyridin-4-yl)-N-[1-(pyrimidin-2-yl)piperidin-4-yl]benzamide], for which the IC50 is 0.78 nM.

`CCC(=O)N[C@H]1CC[C@H](NC(=O)c2ccc(-c3nccc4occc34)cc2)CC1` [Example 298, 4-(furo[3,2-c]pyridin-4-yl)-N-(trans-4-propionamidocyclohexyl)benzamide]: the IC50 was 3.4 nM.
